Test results taken from US11485751B2, “Apramycin derivatives” (WAYNE STATE UNIVERSITY, priority 2017, dated 2022).
Values after ≈ are worked out from the molar mass of the structure shown.

Experiments:
[1] = test system: Enterob. AG302 AAC(3)-II AAC(6′)-I rmtC; experiment: Activity against G1405-methylated 16S-rRNA, clinical isolate AG302; format: cell-based
Description: (§1) Minimal inhibitory concentrations (MIC) have been determined by broth microdilution assays (CLSI. Methods for Dilution Antimicrobial Susceptibility Tests for Bacteria That Grow Aerobically; Approved Standard—Tenth Edition. CLSI document M07-A10. Wayne, Pa.: Clinical and Laboratory Standards Institute; 2015.).

[2] = test system: Engineered E. coli pH424 armA; experiment: Activity against G1405-methylated 16S-rRNA, E. coli pH424 armA; format: cell-based
Description: as §1

[3] = test system: AG212, Escherichia coli ATCC25922; experiment: MIC reference strain AG212; format: cell-based; conditions: Escherichia coli; reference strain ATCC25922; read-out: MIC AG212 E. coli
Description: as §1
(§2) Table 4 and 5 show the antibacterial activity of the compounds of the invention against bacterial reference strains (table 4) and against representative clinical isolates (table 5).
(§3) Legend to Tables: GEN, gentamicin; AMK, amikacin; PLZ, plazomicin; APR, apramycin; AG212, Escherichia coli ATCC25922; AG215, Klebsiella pneumonia; AG220, Pseudomonas aeruginosa ATCC27853; AG225, Acinetobacter baumannii pittii; AG290, Enterobacter cloacae; […], Mycobacterium smegmatis. MICs for AG192 have been determined in the presence of 0.5 μg/mL of ampicillin in the medium to mimic the synergistic effect of aminoglycoside and β-lactam antibiotics combination therapy in the treatment of Enterococcus infections in humans.

[4] = test system: AG225, Acinetobacter baumannii pittii; experiment: MIC reference strain AG225; format: cell-based; conditions: Acinetobacter baumannii, reference strain; read-out: MIC AG225 A. baumannii
Description: as §1, §2, §3

[5] = test system: E. coli AG153 AAC(3)-II APH(3′)-II rmtB; experiment: Activity against G1405-methylated 16S-rRNA, clinical isolate AG153; format: cell-based
Description: as §1

[6] = test system: AG042 MRSA AAC(6′)-I ANT(4′)-I APH(2′); experiment: Antibacterial activity, clinical isolate AG042; format: cell-based; set-up: unit not given here
Description: as §1, §2

ATCC19977 M. abcessus = experiment: MIC reference strain ATCC19977; format: cell-based; conditions: read-out: MIC ATCC19977 M. abcessus
Description: as §1, §2

AG031 P. aer. APH(3′)-II = experiment: Antibacterial activity, clinical isolate AG031; format: cell-based; set-up: unit not given here
Description: as §1, §2

[7] = test system: K. pneum. AG269 AAC(3)-II AAC(6′)-I rmtB; experiment: Activity against G1405-methylated 16S-rRNA, clinical isolate AG269; format: cell-based
Description: as §1

[8] = test system: Engineered E. coli pH430 WT; experiment: Activity, engineered E. coli pH430 WT; format: cell-based; conditions: wild type
Description: as §1

[9] = test system: AG033 P. aer. APH(3′)-II AAC(6′)-I; experiment: Antibacterial activity, clinical isolate AG033; format: cell-based; set-up: unit not given here
Description: as §1, §2

[10] = test system: Engineered E. coli pH426 rmtC; experiment: Activity against G1405-methylated 16S-rRNA, E. coli pH426 rmtC; format: cell-based
Description: as §1

AG038 MRSA = experiment: Antibacterial activity, clinical isolate AG038; format: cell-based; set-up: unit not given here
Description: as §1, §2

[11] = test system: AG220, Pseudomonas aeruginosa ATCC27853; experiment: MIC reference strain AG220; format: cell-based; conditions: Pseudomonas aeruginosa, ATCC27853, reference strain ATCC27853; read-out: MIC AG220 P. aeruginosa
Description: as §1, §2, §3

[12] = test system: AG039 MRSA AAC(6′)-I ANT(4′)-I; experiment: Antibacterial activity, clinical isolate AG039; format: cell-based
Description: as §1, §2

[13] = test system: Engineered E. coli pH427 rmtF; experiment: Activity against G1405-methylated 16S-rRNA, E. coli pH427 rmtF; format: cell-based
Description: as §1

[14] = test system: AG215, Klebsiella pneumonia; experiment: MIC reference strain AG215; format: cell-based; conditions: Klebsiella pneumoniae, reference strain; read-out: MIC AG215 K. pneumonia
Description: as §1, §2, §3

[15] = test system: A baum. AG227 APH(3′)-I armA; experiment: Activity against G1405-methylated 16S-rRNA, clinical isolate AG227; format: cell-based
Description: as §1

AG032 P. aer. APH(3′)-II = experiment: Antibacterial activity, clinical isolate AG032; format: cell-based; set-up: unit not given here
Description: as §1, §2

[16] = test system: Engineered E. coli pH425 rmtB; experiment: Activity against G1405-methylated 16S-rRNA, E. coli pH425 rmtB; format: cell-based
Description: as §1

[17] = test system: AG290, Enterobacter cloacae; experiment: MIC reference strain AG290; format: cell-based; conditions: Enterobacter cloacae; reference strain; read-out: MIC AG290 E. cloacae
Description: as §1, §2, §3

[18] = test system: human mitochondrial ribosomes; experiment: in-vitro translation assay, human mitochondrial (human chimeric) ribosomes; format: biochemical
Description: (§4) IC50 values for bacterial, human chimeric, and rabbit reticulocyte ribosomes have been determined by in-vitro translation assays as described previously (Proc. Nat. Ac. Sci USA 2012, 109(27):10984-10989).
(§5) Minimal inhibitory concentrations (MICs, […]) against clinical isolates from Institute of Medical Microbiology, Univ. Zurich, and the IC50 values for bacterial, human mitochondrial and human cytosolic ribosomes are indicated.

AG003 E. coli AAC(3)-II = experiment: Antibacterial activity, clinical isolate AG003; format: cell-based
Description: as §1, §2

isolates carrying apmA = experiment: MIC broth microdilution, apmA; format: cell-based; conditions: apmA resistance gene
Description: Minimal inhibitory concentrations (MIC) have been determined by broth microdilution assays (CLSI. Methods for Dilution Antimicrobial Susceptibility Tests for Bacteria That Grow Aerobically; Approved Standard—Tenth Edition. CLSI document M07-A10. Wayne, Pa.: Clinical and Laboratory Standards Institute; 2015.). […]
(§6) Minimal inhibitory concentrations (μg/ml) against clinical isolates from Institute of Medical Microbiology, Univ. Zurich, and the IC50 values for bacterial, human mitochondrial and human cytosolic ribosomes are indicated.
(§7) The Minimal inhibitory concentrations (MICs, μg/ml) against clinical isolates from Institute of Medical Microbiology, Univ Zurich, and the IC50 values for bacterial, human mitochondrial and human cytosolic ribosomes are indicated.

AG001 E. coli WT = experiment: Antibacterial activity, clinical isolate AG001; format: cell-based; set-up: unit not given here
Description: as §1, §2

[19] = test system: Engineered E. coli AG103 armA; experiment: Activity against G1405-methylated 16S-rRNA, E. coli AG103 armA; format: cell-based
Description: as §1

[20] = test system: human cytosolic ribosomes; experiment: in-vitro translation assay, human cytosolic ribosomes; format: biochemical
Description: as §4, §5

AG055 E. coli WT = experiment: Antibacterial activity, clinical isolate AG055; format: cell-based; set-up: unit not given here
Description: as §1, §2

AG173 E. coli AAC(3)-IV = experiment: Antibacterial activity, clinical isolate AG173; format: cell-based
Description: as §1, §2

bacterial ribosomes = experiment: in-vitro translation assay, bacterial ribosomes; format: biochemical
Description: as §4, §5

[21] = test system: SZ380, Mycobacterium smegmatis; experiment: MIC reference strain SZ380; format: cell-based; conditions: Mycolicibacterium smegmatis, reference strain; read-out: MIC SZ380 M. smegmatis
Description: as §1, §2, §3

WT clinical isolates = experiment: MIC broth microdilution, WT; format: cell-based; conditions: read-out: MIC WT, clinical isolates, IMM Univ. Zurich; wild type
Description: as §1, §5, §6, §7

[22] = test system: clinical isolates carrying AAC(3)-IV; experiment: MIC broth microdilution, AAC(3)-IV; format: cell-based; conditions: clinical isolates, IMM Univ. Zurich; AAC(3)-IV; read-out: MIC AAC(3)-IV
Description: as §1, §5, §6, §7

Structure (SMILES) | Activity E. coli pH424 armA [2] | MIC [3] | MIC [4] | Antibacterial activity AG042 MRSA AAC(6′)-I ANT(4′)-I APH(2′) [6] | MIC (ATCC19977 M. abcessus) | Antibacterial activity AG031 P. aer. APH(3′)-II (AG031 P. aer. APH(3′)-II) | Activity E. coli pH430 WT [8] | Antibacterial activity AG033 P. aer. APH(3′)-II AAC(6′)-I [9] | Activity E. coli pH426 rmtC [10] | Antibacterial activity AG038 MRSA (AG038 MRSA) | MIC [11] | Antibacterial activity AG039 MRSA AAC(6′)-I ANT(4′)-I [12] | Activity E. coli pH427 rmtF [13] | MIC [14] | Antibacterial activity AG032 P. aer. APH(3′)-II (AG032 P. aer. APH(3′)-II) | Activity E. coli pH425 rmtB [16] | MIC [17] | other results
NCC[C@H](O)C(=O)N[C@@H]1C[C@H](N)[C@@H](O[C@H]2O[C@H](CN)[C@@H](O)[C@H](O)[C@H]2O)[C@H](O)[C@H]1O[C@H]1O[C@H](CO)[C@@H](O)[C@H](N)[C@H]1O [AMK, amikacin, reference compound] | >128 | 2 µg/mL | 2 µg/mL | 16-32 | 2 µg/mL (≈ 3.42 µM) | 4 | 1 | 64 | >128 | 4 | 2 µg/mL | 2-4 | >128 | 1 µg/mL | 4 | >128 | 1 µg/mL | Activity Enterob. AG302 AAC(3)-II AAC(6′)-I rmtC [1]: >256; Activity E. coli AG153 AAC(3)-II APH(3′)-II rmtB [5]: >256; Activity K. pneum. AG269 AAC(3)-II AAC(6′)-I rmtB [7]: >256; Activity A baum. AG227 APH(3′)-I armA [15]: >256
CNC1C(OC2OC(CO)C(N)C(O)C2O)OC2CC(N)C(OC3C(N)CC(N)C(O)C3F)OC2C1O (centres unmarked) [DC170, 5-Deoxy-5-fluoro apramycin] | 2 | 4 µg/mL | 4 to 8 µg/mL | 8 | 1 µg/mL (≈ 1.85 µM) | 8-16 | 4 | 32 | 4 | 4-8 | 8 µg/mL | 4-8 | 4 | 2 µg/mL | 16 | 4 | 4 µg/mL | IC50 [18]: 62 µM; Antibacterial activity AG003 E. coli AAC(3)-II (AG003 E. coli AAC(3)-II): 8; MIC apmA (isolates carrying apmA): 32 µg/mL (≈ 59.1 µM); Antibacterial activity AG001 E. coli WT (AG001 E. coli WT): 8; Activity E. coli AG103 armA [19]: 2; IC50 [20]: 74 µM; Antibacterial activity AG055 E. coli WT (AG055 E. coli WT): 4; Antibacterial activity AG173 E. coli AAC(3)-IV (AG173 E. coli AAC(3)-IV): 64; IC50 (bacterial ribosomes): 0.06 µM; MIC [21]: 0.25 µg/mL; MIC (WT clinical isolates): 4 µg/mL (≈ 7.39 µM); MIC [22]: > 32 µg/mL
